In patent publication US4380512A, “2β-Chloromethyl-2α-methylpenam-3α-carboxylic acid sulfone and salts and esters thereof” (Bristol-Myers Company, priority 1981, dated 1983):
In brackets after ≈: the same amount, converted by molar mass. Counter-ions that a name gives are not always drawn. Like-named read-outs stand apart in the source and are kept apart here.

Tests used:
E. coli A9675 = assay: Therapeutic efficacy of BL-P2043, BL-P2044 and components, oral, infected mice (Table 13); format: in vivo; settings: Escherichia coli, po; E. coli A9675, p.o.; pro-drugs and mixtures 50:38; read-out: PD50/Treatment
β-lactamase enzyme RTEM = settings: cited from earlier work
B. thetaiotaomicron = assay: Anti-Bacteroides activity, MIC by agar dilution (Table 2); format: cell-based; settings: A22279, beta-lactamase +
Experimental: *Minimum inhibitory concentration (MIC) determined by the agar dilution
method using 50X dilutions of 24 hour cultures as inocula dispensed by th
Steer's inoculator. Assay medium composed of Brucella Agar plus 5% laked
sheep blood and 10 mcg/ml vitamin K.

Bacteroides species = assay: as above; format: cell-based
in vivo [1] = settings: mouse, po
Source text: Compounds were solubilized in propylene glycol, except for the Hetacillin

[2] = mouse, in vivo, po, 50 mg/kg
in vivo [3] = settings: mouse, po, 50 mg/kg; for concentration at 0.5 h / concentration at 1 h / concentration at 2 h: Blood Level
[4] = Blood levels and half-life of BL-P2024 after oral administration to mice (Table 5); format: in vivo; settings: 100 mg/kg oral
E. coli = assay: Therapeutic efficacy as mutual pro-drugs or mixtures, oral, infected mice (Table 12); format: in vivo; settings: Escherichia coli, pro-drugs and their mixtures 50:38, read-out: PD50/Treatment
Experimental: (§1) ^a Treatment schedule: Mice were infected i.p. with about 5 ×
(§2) 10^6 organisms of E. coli in 4% mucin and 1 × 10^9 of S.
(§3) aureus in 2% mucin. Drugs were administered p.o. at 0 and 2 hour
(§4) ^b Mutual ProDrugs: BLP2048 (hetacillin: BLP2013) and BLP2049
(§5) (hetaamoxicillin: BLP2013) as well as their respective mixtures were
(§6) administered in a 50:38 ratio. PD50 values are averages of 2 to 3
(§7) tests for E. coli and 1 to 2 tests for S. aureus.
(§8) averages of 1 to 2 tests for E. coli and a single test for S. aureus.

S. aureus = assay: as above; format: in vivo; settings: Staphylococcus aureus, pro-drugs and their mixtures 50:38, read-out: PD50/Treatment
Experimental: as §1, §2, §3, §4, §5, §6, §7, §8

[5] = tested on: β-lactamase-producing strains; settings: in vitro and in vivo; cited from earlier work
C. freundii = assay: Antibacterial activity of ceforanide alone and with BL-P2013, MIC (Table 11); format: cell-based; settings: Citrobacter freundii
Source text: (§9) ^a Geometric mean value where applicable.

Citrobacter sp. = assay: as above; format: cell-based
Source text: as §9

E. aerogenes = assay: as above; format: cell-based
Source text: as §9

E. cloacae = assay: as above; format: cell-based; settings: Enterobacter cloacae
Source text: as §9

M. morganii = assay: as above; format: cell-based; settings: Morganella morganii, geometric mean
Source text: as §9

P. aeruginosa = assay: as above; format: cell-based; settings: Pseudomonas aeruginosa
Source text: as §9

P. mirabilis = assay: as above; format: cell-based; settings: Proteus mirabilis
Source text: as §9

P. rettgeri = assay: as above; format: cell-based; settings: Providencia rettgeri
Source text: as §9

P. stuartii = assay: as above; format: cell-based; settings: Providencia stuartii
Source text: as §9

P. vulgaris = assay: as above; format: cell-based; settings: Proteus vulgaris
Source text: as §9

S. faecalis = assay: as above; format: cell-based; settings: Enterococcus faecalis
Source text: as §9

S. marcescens = assay: as above; format: cell-based
Source text: as §9

[6] = man, oral; cited from earlier work

Work on CC1(C)SC2C(NC(=O)C(N)c3ccc(O)cc3)C(=O)N2C1C(=O)OCOC(=O)C1N2C(=O)CC2S(=O)(=O)C1(C)CCl (single isomer, unassigned) [BL-P2044, Hydrochloride] yielded an ED50 (E. coli A9675) of 25 mg/kg.
For CC1(C)[C@H](C(=O)O)N2C(=O)[C@@H](Br)[C@H]2S1(=O)=O [(2S,5R,6S)-6β-Bromo-3,3-dimethyl-7-oxo-4-thia-1-azabicyclo[3.2.0]heptane-2-carboxylic acid, S,S-dioxide], the “inhibition of β-lactamase” value (β-lactamase enzyme RTEM) is given as “inhibit the action of the β-lactamase enzyme RTEM”.
Work on CC1(C)S[C@@H]2[C@H](NC(=O)[C@H](N)c3ccc(O)cc3)C(=O)N2[C@H]1C(=O)O [Amoxicillin, reference compound] yielded an MIC (B. thetaiotaomicron) of 16 mg/L, an MIC (Bacteroides species; A20929, beta-lactamase +) of 16 mg/L and an MIC (Bacteroides species; A20931, beta-lactamase +) of 16 mg/L. It also gave an MIC (Bacteroides species; A21954, beta-lactamase +) of 16 mg/L, an AUC (in vivo [1]; 50 mg/kg) of 9.5 µg·h/mL and a concentration at 0.5 h (in vivo [1]; 50 mg/kg) of 7 µg/mL. For the same compound, the concentration at 1 h (in vivo [1]; 50 mg/kg) was 5 µg/mL, the concentration at 2 h (in vivo [1]; 50 mg/kg) was 2.2 µg/mL and the “Blood Level” value ([2]; 0.5 h) was 7 µg/mL. For the same compound, the “Blood Level” value ([2]; 1 h) was 5 µg/mL, the “Blood Level” value ([2]; 2 h) was 2.2 µg/mL and the AUC (in vivo [3]) was 15.4 µg·h/mL. For the same compound, the concentration at 0.5 h (in vivo [3]) was 11 µg/mL, the concentration at 1 h (in vivo [3]) was 9 µg/mL and the concentration at 2 h (in vivo [3]) was 3.1 µg/mL.
For CC1(C)S[C@@H]2[C@H](NC(=O)[C@H](N)c3ccccc3)C(=O)N2[C@H]1C(=O)O [Ampicillin, reference compound], the AUC (in vivo [1]; 50 mg/kg) was 6.2 µg·h/mL, the concentration at 0.5 h (in vivo [1]; 50 mg/kg) was 4 µg/mL and the concentration at 1 h (in vivo [1]; 50 mg/kg) was 3.3 µg/mL. The concentration at 2 h (in vivo [1]; 50 mg/kg) was 1.7 µg/mL, the ED50 (E. coli A9675) was greater than 400 mg/kg and the “Blood Level” value ([2]; 0.5 h) was 3.2 µg/mL. The “Blood Level” value ([2]; 1 h) was 2.6 µg/mL, the AUC (in vivo [3]) was 6.2 µg·h/mL and the concentration at 0.5 h (in vivo [3]) was 4 µg/mL. The concentration at 1 h (in vivo [3]) was 3.3 µg/mL and the concentration at 2 h (in vivo [3]) was 1.7 µg/mL.
With CC(C)(C)C(=O)OCOC(=O)C1N2C(=O)CC2S(=O)(=O)C1(C)CCl (stereo not drawn) [BL-P2024, Pivaloyloxymethyl 2β-Chloromethyl-2α-methylpenam-3α-carboxylate Sulfone] the “Blood Level” value ([4]; 15 min) was 12.3 µg/mL, the “Blood Level” value ([4]; 30 min) was 12.2 µg/mL and the “Blood Level” value ([4]; 60 min) was 9.4 µg/mL. For the same compound, the “Blood Level” value ([4]; 120 min) was 5.7 µg/mL.
Compound CC1(C)SC2C(NC(=O)C(N)c3ccccc3)C(=O)N2C1C(=O)OCOC(=O)C1N2C(=O)CC2S(=O)(=O)C1(C)CCl [BL-P2043, 6-[(R)-2-Amino-2-phenylacetamido]-3,3-dimethyl-7-oxo-4-thia-1-azabicyclo[3.2.0]heptane-2-carbonyloxymethyl 2β-chloromethyl-2-α-methylpenam-3α-carboxylate sulfone] has an ED50 (E. coli A9675) of 44 mg/kg.
With CC1(C)SC2C(N3C(=O)C(c4ccccc4)NC3(C)C)C(=O)N2C1C(=O)OCOC(=O)C1N2C(=O)CC2S(=O)(=O)C1(C)CCl [BL-P2048, 2β-Chloromethyl-2α-methyl-1,1-dioxopenam-3-carbonyloxymethyl 6-(D-2,2-dimethyl-5-oxo-4-phenyl-1-imidazolidinyl)penicillanate Hydrochloride] the “Blood Level” value (in vivo [1]; 38 mg/kg, 15 min) was 10 µg/mL, the “Blood Level” value (in vivo [1]; 38 mg/kg, 120 min) was 0.9 µg/mL and the “Blood Level” value (in vivo [1]; 38 mg/kg, 150 min) was 0.6 µg/mL. The “Blood Level” value (in vivo [1]; 50 mg/kg, 15 min) was 8 µg/mL, the ED50 (E. coli; E. coli A20649, p.o.) was 89 mg/kg and the ED50 (E. coli; E. coli A21223, p.o.) was 32 mg/kg. It also gave an ED50 (E. coli; E. coli A-9675, p.o.) of 49 mg/kg, an ED50 (S. aureus; S. aureus A20379, p.o.) of 400 mg/kg and an ED50 (S. aureus; S. aureus A-9606, p.o.) of 274 mg/kg.
In the case of CC1(C)SC2C(N3C(=O)C(c4ccc(O)cc4)NC3(C)C)C(=O)N2C1C(=O)OCOC(=O)C1N2C(=O)CC2S(=O)(=O)C1(C)CCl [BL-P2049, 2β-Chloromethyl-2α-methyl-1,1-dioxopenam-3-carbonyloxymethyl 6-[D-2,2-dimethyl-5-oxo-4-(4-hydroxyphenyl)-1-imidazolidinyl]-penicillanate Hydrochloride], the “Blood Level” value (in vivo [1]; 38 mg/kg, 15 min) is reported as 4.1 µg/mL, the “Blood Level” value (in vivo [1]; 38 mg/kg, 30 min) is reported as 4.6 µg/mL and the “Blood Level” value (in vivo [1]; 38 mg/kg, 60 min) is reported as 3.1 µg/mL. For the same compound, the “Blood Level” value (in vivo [1]; 38 mg/kg, 90 min) was 2.2 µg/mL, the “Blood Level” value (in vivo [1]; 38 mg/kg, 120 min) was 1.6 µg/mL and the “Blood Level” value (in vivo [1]; 38 mg/kg, 150 min) was 1.2 µg/mL. For the same compound, the “Blood Level” value (in vivo [1]; 50 mg/kg, 15 min) was 3.7 µg/mL, the “Blood Level” value (in vivo [1]; 50 mg/kg, 30 min) was 4.7 µg/mL and the “Blood Level” value (in vivo [1]; 50 mg/kg, 60 min) was 4.7 µg/mL. The “Blood Level” value (in vivo [1]; 50 mg/kg, 90 min) was 4.1 µg/mL, the “Blood Level” value (in vivo [1]; 50 mg/kg, 120 min) was 3.7 µg/mL and the “Blood Level” value (in vivo [1]; 50 mg/kg, 150 min) was 3.3 µg/mL. The ED50 (E. coli; E. coli A20649, p.o.) was 43 mg/kg, the ED50 (E. coli; E. coli A21223, p.o.) was 32 mg/kg and the ED50 (E. coli; E. coli A-9675, p.o.) was 28 mg/kg. For the same compound, the ED50 (S. aureus; S. aureus A20379, p.o.) was greater than 400 mg/kg and the ED50 (S. aureus; S. aureus A-9606, p.o.) was greater than 374 mg/kg.
For CC1(C)[C@H](C(=O)O)N2C(=O)C[C@H]2S1(=O)=O [CP-45899], the potentiation of ampicillin [5] is listed as “potentiates the in vitro and in vivo activities of ampicillin versus β-lactamase-producing strains”.
NCc1ccccc1CC(=O)N[C@@H]1C(=O)N2C(C(=O)O)=C(CSc3nnnn3CC(=O)O)CS[C@H]12 [Ceforanide] showed an MIC (C. freundii) greater than 125 mg/L, an MIC (Citrobacter sp.) greater than 125 mg/L and an MIC (E. aerogenes; 5 strains, geometric mean) greater than 125 mg/L. The MIC (E. aerogenes; Klebsiella aerogenes) was greater than 125 mg/L, the MIC (E. aerogenes; Klebsiella aerogenes, 4 strains, geometric mean, read-out: MIC) was 3.4 mg/L (≈ 6.54 µM) and the MIC (E. cloacae; 1 strain (first line)) was 22.6 mg/L (≈ 43.5 µM). The MIC (E. cloacae; 1 strain (third line)) was greater than 125 mg/L, the MIC (E. cloacae; 14 strains, geometric mean) was greater than 125 mg/L and the MIC (M. morganii; 8 strains (second line)) was greater than 125 mg/L. The MIC (M. morganii; 8 strains (first line), read-out: MIC) was 65 mg/L (≈ 125 µM), the MIC (P. aeruginosa) was 125 mg/L (≈ 241 µM) and the MIC (P. mirabilis; 1 strain) was 0.25 mg/L (≈ 0.481 µM). For the same compound, the MIC (P. mirabilis; 3 strains, geometric mean) was 25.4 mg/L (≈ 48.9 µM), the MIC (P. rettgeri; 1 strain (first line)) was 0.06 mg/L (≈ 0.115 µM) and the MIC (P. rettgeri; 1 strain (second line)) was 16 mg/L (≈ 30.8 µM). For the same compound, the MIC (P. stuartii; 1 strain) was 0.35 mg/L (≈ 0.674 µM), the MIC (P. stuartii; 4 strains, geometric mean) was 45 mg/L (≈ 86.6 µM) and the MIC (P. vulgaris) was greater than 125 mg/L. For the same compound, the MIC (P. vulgaris; 1 strain, read-out: MIC) was 0.5 mg/L (≈ 0.962 µM), the MIC (P. vulgaris; 9 strains, geometric mean, read-out: MIC) was 85 mg/L (≈ 164 µM) and the MIC (S. faecalis) was greater than 125 mg/L. The MIC (S. marcescens; 6 strains, geometric mean) was 125 mg/L (≈ 241 µM) and the MIC (S. marcescens; Serratia marcescens) was 125 mg/L (≈ 241 µM).
For CC1(C)S[C@@H]2[C@H](NC(=O)[C@H](N)c3ccccc3)C(=O)N2[C@H]1C(=O)OCOC(=O)[C@@H]1N2C(=O)C[C@H]2S(=O)(=O)C1(C)C [ester 3], the “absorption from the gastro-intestinal tract” value [6] is given as “excellently absorbed from the gastro-intestinal tract”, the “blood and tissue levels of antibiotic and β-lactamase inhibitor” value [6] is given as “high blood and tissue levels of antibiotic and β-lactamase inhibitor in a balanced ratio” and the hydrolysis after absorption [6] is given as “hydrolyzed with simultaneous liberation of the active components”.
For CC1(C)S[C@@H]2[C@H](N=CN3CCCCCC3)C(=O)N2[C@H]1C(=O)OCOC(=O)[C@@H]1N2C(=O)C[C@H]2S(=O)(=O)C1(C)C [ester 4], the “absorption from the gastro-intestinal tract” value [6] is listed as “excellently absorbed from the gastro-intestinal tract”, the “blood and tissue levels of antibiotic and β-lactamase inhibitor” value [6] is listed as “high blood and tissue levels of antibiotic and β-lactamase inhibitor in a balanced ratio” and the hydrolysis after absorption [6] is listed as “hydrolyzed with simultaneous liberation of the active components”.
